Measurements from PubChem BioAssay (NCI).
Values joined by “and” are separate entries in the source; they are usually repeats but may differ in a detail not shown here. Equal values may be shown once.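 Dose response: 5 concentrations. Exposure: 48 h. Format: 96-well plates. Endpoint: linear interpolation; highest concentration if not reached. GI50 marks 50% less growth. TGI denotes the concentration required for complete inhibition of growth.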

Columns and labels:
Test in all cases: DTP human tumour cell line panel, 48 h
786-0 renal = test system: 786-0 renal
BT-549 breast = test system: BT-549 breast
CCRF-CEM leukemia = test system: CCRF-CEM leukemia
COLO 205 colon = test system: COLO 205 colon
MDA-MB-231 breast = test system: MDA-MB-231 breast
MOLT-4 leukemia = test system: MOLT-4 leukemia
NCI-H23 lung = test system: NCI-H23 lung
NCI-H460 lung = test system: NCI-H460 lung
NCI/ADR-RES ovarian = test system: NCI/ADR-RES ovarian
OVCAR-3 ovarian = test system: OVCAR-3 ovarian
OVCAR-8 ovarian = test system: OVCAR-8 ovarian
SF-268 CNS = test system: SF-268 CNS
SF-295 CNS = test system: SF-295 CNS
SK-MEL-5 melanoma = test system: SK-MEL-5 melanoma
SK-OV-3 ovarian = test system: SK-OV-3 ovarian
SNB-75 CNS = test system: SNB-75 CNS
SR leukemia = test system: SR leukemia
UO-31 renal = test system: UO-31 renal

SMILES	TGI (786-0 renal)	TGI (BT-549 breast)	TGI (CCRF-CEM leukemia)	TGI (COLO 205 colon)	TGI (MDA-MB-231 breast)	TGI (MOLT-4 leukemia)	TGI (NCI-H23 lung)	TGI (NCI-H460 lung)	TGI (NCI/ADR-RES ovarian)	TGI (OVCAR-3 ovarian)	TGI (OVCAR-8 ovarian)	TGI (SF-268 CNS)	TGI (SF-295 CNS)	TGI (SK-MEL-5 melanoma)	TGI (SK-OV-3 ovarian)	TGI (SNB-75 CNS)	TGI (SR leukemia)	TGI (UO-31 renal)	GI50 (COLO 205 colon)
COC(=O)c1ccc(NCc2cc(O)c3ccccc3c2O)cc1	46.5 µM	30.7 µM	16.3 µM	25.4 µM	6.02 µM	9.73 µM	30.3 µM	24.5 µM	94.3 µM	28.2 µM	93.4 µM	> 73.1 µM	19.9 µM	3.15 µM	31.6 µM	56.6 µM	21.7 µM	26.7 µM	–
COc1ccc(/C=C/c2cc(=O)cc(/C=C/c3ccc(OC)c(O)c3)o2)cc1O	> 34 µM	10.3 µM	5.91 µM	> 61.1 µM	5.73 µM	4.9 µM	5.8 µM	5.73 µM	> 24.3 µM	6.51 µM	10.1 µM	> 75.9 µM	13.3 µM	4.98 µM	21.7 µM	22.6 µM	2.89 µM	11.5 µM	–
CCOC(=O)c1c(N2CCOCC2)[nH]c(=O)c(C(c2ccc(N(C)C)cc2)c2c(O)c(C(=O)OCC)c(N3CCOCC3)[nH]c2=O)c1O	> 100 µM	> 100 µM	> 100 µM	> 100 µM	> 100 µM	> 100 µM	> 100 µM	> 100 µM	> 100 µM	> 100 µM	> 100 µM	> 100 µM	> 100 µM	> 100 µM	> 100 µM	> 100 µM	> 100 µM	> 100 µM	–
CNC(=S)N/N=C(\C)c1ccc(OC)cc1O	> 100 µM	> 100 µM	> 100 µM	> 100 µM	> 100 µM	> 100 µM	> 100 µM	> 100 µM	> 100 µM	> 100 µM	> 100 µM	> 100 µM	> 100 µM	> 69.5 µM	> 100 µM	> 100 µM	> 100 µM	> 100 µM	–
COc1ccc(C(=O)N=C2N(c3ccccc3)C(=Nc3ccccc3)C(=Nc3ccccc3)N2c2ccccc2)cc1	59.5 µM	> 58.2 µM	> 100 µM	> 100 µM	> 100 µM	> 100 µM	> 100 µM	> 100 µM	> 100 µM	> 100 µM	> 100 µM	> 100 µM	> 100 µM	> 56.7 µM	> 100 µM	27.2 µM	> 100 µM	> 100 µM	–
CC(=O)OCC1OC(Sc2nc(-c3ccc(C)cc3)c(C#N)c(=O)n2C2OC(COC(C)=O)C(OC(C)=O)C(OC(C)=O)C2OC(C)=O)C(OC(C)=O)C(OC(C)=O)C1OC(C)=O (configuration not stated)	> 100 µM	> 100 µM	> 100 µM	> 100 µM	> 100 µM	> 100 µM	> 100 µM	> 100 µM	> 100 µM	> 100 µM	> 100 µM	> 100 µM	> 100 µM	> 100 µM	> 100 µM	> 100 µM	> 100 µM	> 100 µM	> 100 µM and 10.3 µM
O=C(CCNC(=O)OCc1ccccc1)OCCCNC(=O)OCc1ccccc1	> 100 µM	> 100 µM	> 100 µM	> 100 µM	> 100 µM	> 100 µM	> 100 µM	> 100 µM	> 100 µM	> 100 µM	> 100 µM	> 100 µM	> 100 µM	> 100 µM	> 100 µM	> 100 µM	> 100 µM	> 100 µM	–
S=C(NNC1=NCCCCN1)Nc1ccccc1	> 100 µM	> 100 µM	> 100 µM	> 100 µM	> 100 µM	> 100 µM	> 100 µM	> 100 µM	> 100 µM	> 100 µM	> 100 µM	> 100 µM	> 100 µM	> 100 µM	> 100 µM	> 100 µM	> 100 µM	> 100 µM	–
COC(=O)[C@@H]1C[C@H]2[C@H](c3ccccc3Br)[C@@H](OC(C)=O)[C@@H](OCc3ccccc3)ON2O1	> 100 µM	> 100 µM	> 100 µM	> 100 µM	> 100 µM	> 100 µM	> 100 µM	> 100 µM	> 100 µM	> 100 µM	> 100 µM	> 100 µM	> 100 µM	> 100 µM	> 100 µM	> 100 µM	> 100 µM	> 100 µM	–
COc1ccc(Oc2nc3cc(C(F)(F)F)ccc3nc2C(C)C)cc1	> 100 µM	65.8 µM	> 100 µM	30.2 µM	79 µM	36.9 µM	52.6 µM	68.8 µM	44.1 µM	93.3 µM	94.5 µM	> 100 µM	51 µM	52.2 µM	> 100 µM	95.7 µM	36.6 µM	95 µM	–
CCOc1ccccc1N=NC1C(=O)N(C(=O)CC(=O)Nc2ccccc2Cl)N=C1C (configuration not stated)	> 100 µM	> 100 µM	> 100 µM	> 100 µM	> 100 µM	> 100 µM	> 100 µM	> 100 µM	> 100 µM	> 100 µM	> 100 µM	> 100 µM	> 100 µM	> 100 µM	90.3 µM	> 100 µM	> 100 µM	> 100 µM	–
OC(CCN1CCN(CCOC(c2ccc(F)cc2)c2ccc(F)cc2)CC1)c1ccccc1 (configuration not stated)	25.6 µM	27.1 µM	45.6 µM	18.2 µM	28.8 µM	29.1 µM	31.1 µM	35.4 µM	26.8 µM	31.4 µM	25.7 µM	31.2 µM	34.6 µM	21 µM	32.5 µM	27.5 µM	33.3 µM	11.2 µM	–
